The values that follow come from patent EP3687536B1, “METHODS OF TREATING HEMOCHROMATOSIS AND RESPIRATORY DISORDERS” (MYMD PHARMACEUTICALS, INC., priority 2017, dated 2019).

“Also recorded” adds a separate entry of the source.

The target in one test is T1, MAO-A (Homo sapiens, UniProt P21397).
T1 construct: purchased
T1 sequence (P21397 1-527): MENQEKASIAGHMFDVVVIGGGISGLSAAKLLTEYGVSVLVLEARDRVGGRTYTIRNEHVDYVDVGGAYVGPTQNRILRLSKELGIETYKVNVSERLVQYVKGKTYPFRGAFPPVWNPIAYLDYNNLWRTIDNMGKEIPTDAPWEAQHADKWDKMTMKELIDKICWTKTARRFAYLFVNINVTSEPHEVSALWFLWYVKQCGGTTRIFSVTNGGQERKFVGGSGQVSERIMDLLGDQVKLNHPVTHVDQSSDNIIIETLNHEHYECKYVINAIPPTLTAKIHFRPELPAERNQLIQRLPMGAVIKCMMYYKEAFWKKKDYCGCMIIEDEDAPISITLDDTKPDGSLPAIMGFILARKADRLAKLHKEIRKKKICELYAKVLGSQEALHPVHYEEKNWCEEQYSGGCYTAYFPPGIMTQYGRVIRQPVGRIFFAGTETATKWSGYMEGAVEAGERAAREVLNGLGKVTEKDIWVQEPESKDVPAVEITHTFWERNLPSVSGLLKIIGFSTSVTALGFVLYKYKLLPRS
In words: MAO-Glo luminescent assay, MAO-A inhibition. The following applies: for inhibiting the enzymatic activity of MAO-A (result in words): compared among isomyosmine, myosmine, anatabine, anabasine, nornicotine, clorgyline positive control, FIG. 3. The class given is biochemical. From the text:
(§1) This example describes experiments for determining monoamine oxidase (MAO) inhibition for isomyosmine and other alkaloids. MAOs are enzymes located on the outer membrane of mitochondria and are involved in the catabolism of monoamine neurotransmitters. There are two well-characterized isoenzymes: MAO-A, which predominantly catabolizes serotonin and norepinephrine, and MAO-B, which preferentially catabolizes benzylamine and phenylethylamine. Dopamine and tyramine are metabolized by both isoforms.
(§2) To detect the activity of MAO, a luminescent method (MAO-Glo Assay kit, from Promega, Cat # V1401) was used. In this method, a MAO substrate (a derivative of beetle luciferin provided in the kit) is mixed with the compound to be tested (in this case, myosmine and control compounds). Then, the MAO enzymes (either A or B, purchased separately) are added to the mixture and incubated with the reaction for 1 hour at room temperature. The MAO enzymes, if not inhibited by the test compound, will convert the substrate into methyl ester luciferin. Finally, a luciferin detection reagent (provided by the kit) is added (20 minutes at room temperature) to stop the MAO reaction and convert methyl ester luciferin into D-luciferin. D-luciferin reacts with luciferase to produce a luminescent signal, which is directly proportional to the D-luciferin concentration and thus the MAO activity: the greater the amount of light produced the higher the activity of MAO. The luminescent signal is measured and recorded using a luminometer.
The following materials were obtained from Toronto Research Chemicals, North York, ON: isomyosmine, catalog # 1821350; myosmine, catalog # M835000; anabasine, catalog # A637175; and nornicotine, catalog # N756995. Anatabine was obtained from Emerson Resources, Norristown, PA.

Test [1] can be described thus: Blood oxygen saturation (SpO2) by pulse oximetry in individuals. It is filed as in vivo, human. As to conditions: seven individuals, one hour after single dose 50-100 mg. An excerpt:
This example illustrates the effect of isomyosmine on normal blood oxygen saturation levels (SpO2). SpO2 refers to peripheral capillary oxygen saturation, an estimate of the amount of oxygen in the blood. More specifically, it is the percentage of oxygenated hemoglobin (hemoglobin containing oxygen) compared to the total amount of hemoglobin in the blood (oxygenated and non-oxygenated hemoglobin). SpO2 can be measured by pulse oximetry, an indirect, non-invasive method. It works by emitting and then absorbing a light wave passing through blood vessels (or capillaries) in the fingertip. A variation of the light wave passing through the finger will give the value of the SpO2 measurement because the degree of oxygen saturation causes variations in the blood's color.

The target of the next test is T2, MAO-B (Homo sapiens, UniProt P27338).
T2 construct: purchased
T2 sequence (P27338 1-520): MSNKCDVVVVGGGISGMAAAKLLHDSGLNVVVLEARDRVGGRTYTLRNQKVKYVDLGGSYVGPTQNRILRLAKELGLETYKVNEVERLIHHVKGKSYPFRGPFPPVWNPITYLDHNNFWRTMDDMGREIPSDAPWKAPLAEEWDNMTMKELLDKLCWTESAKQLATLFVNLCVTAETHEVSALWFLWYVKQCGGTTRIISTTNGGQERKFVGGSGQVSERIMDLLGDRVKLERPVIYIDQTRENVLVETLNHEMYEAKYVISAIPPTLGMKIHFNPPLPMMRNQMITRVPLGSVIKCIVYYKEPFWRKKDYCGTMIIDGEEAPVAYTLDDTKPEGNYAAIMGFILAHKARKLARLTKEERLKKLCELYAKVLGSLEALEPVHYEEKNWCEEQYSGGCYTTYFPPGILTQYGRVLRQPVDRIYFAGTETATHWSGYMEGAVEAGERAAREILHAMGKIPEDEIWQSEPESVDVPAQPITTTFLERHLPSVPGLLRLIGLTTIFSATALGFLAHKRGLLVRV
In words: MAO-Glo luminescent assay, MAO-B inhibition. It is filed as biochemical. The following applies: compared among isomyosmine, myosmine, anatabine, anabasine, nornicotine; FIG. 4.
Excerpt: as §1
as §2, with “D-luciferin reacts with luciferase to produce a luminescent signal, which is directly proportional to the D-luciferin concentration and thus the MAO activity: the greater the amount of light produced the higher the activity of MAO.” left out, “luminometer. […]” for “luminometer.”

The nature of test [2]: Topical administration for wound healing. It is filed as in vivo. The following applies: e.g. surgical incisions. An excerpt: A method, not falling within the scope of the claimed subject-matter, of treating a wound is also described herein which comprises administering to an individual in need thereof a pharmaceutical composition containing a therapeutically effective amount of isomyosmine or a pharmaceutically acceptable salt thereof.

Regarding `C#CCN(C)CCCOc1ccc(Cl)cc1Cl` [clorgyline, reference compound], the “inhibiting the enzymatic activity of MAO-A (result in words)” value against MAO-A is reported as “greatly shifted leftward”.
`C1=NC(c2cccnc2)CC1` (stereo not shown) [isomyosmine, 3-(3,4-dihydro-2H-pyrrol-2-yl)-pyridine]: the “blood oxygenation (result in words)” value in test [1] is “significant increase in blood oxygenation”. For the same compound, on MAO-B, the “inhibiting the activity of MAO-B (result in words)” value is “most potent among the five alkaloids tested; also recorded: potent inhibitor”. The “wound healing (result in words)” value in test [2] is “dramatically improve healing”. Besides, the results for the “inhibiting the enzymatic activity of MAO-A (result in words)” value on MAO-A and at MAO-A (listed as Isomyosmine) were “most potent of the five” and “potent inhibitor”, respectively. In addition, at MAO-A (read-out: inhibition of MAO-A), the inhibition at 2000 µM is ~50%.
